According to patent publication US20220226343A1, “3-AMINO-4-[4-[4 (DIMETHYLCARBAMOYL) PHENYL]-1,4-DIAZEPAN-1-YL]THIENO[2,3-B]PYRIDINE-2-CARBOXAMIDE FOR USE IN CANCER THERAPY AND FORMULATIONS COMPRISING THE SAME” (University of South Carolina, priority 2019, published 2022):
In brackets after ≈: the same amount, converted by molar mass.

How the values were obtained:
[1] = Oral PK by formulation, male CD-1 mice 30 mg/kg; format: in vivo, mouse; details: for Elimination rate k: male CD-1
[2] = MTD, medicated diet 4 or 5 weeks, CD-1 mice; format: in vivo, mouse; details: female CD-1 mice, 1000 ppm medicated diet, first week
Procedure: In another long-term MTD in vivo assay, groups of male and female CD-1 mice were fed regular diet (control) or 15u-medicated diet (500 ppm or 1000 ppm) for 4 or 5 weeks (FIG. 16B). The daily doses of 500 ppm and 1000 ppm groups were estimated to be about 50-100 mg/kg and 100-200 mg/kg, respectively, based on daily diet consumption.

[3] = MTD, oral gavage b.i.d. 14 days, CD-1 mice; format: in vivo, mouse; details: for detrimental effects: 14 days
Procedure: The highest dose (120 mg/kg b.i.d.) caused about 10% body weight loss in female mice after 7-10 days of treatment but no further deterioration was observed through the rest of the treatment period (FIG. 16A).

[4] = test system: luciferase-expressing MV4-11 cells; assay: MV4-11 leukemia in female NSG mice (BLI); format: in vivo, mouse; details: for inhibition of leukemia growth: 23 days, BLI
MYC-CAP-CR cells [5] = assay: Long-term clonogenic assay, MYC-CaP-CR; format: cell-based, murine; details: 1 μM Senexin B, 1 μM 15u, 5 μM enzalutamide
Text: (§1) MYC-CaP-CR cells (Ellis L. et al., 2012. Prostate 72(6):587-591) were selected for castration resistance from genetically engineered MYC-CaP cells that express MYC from an AR-responsive promoter (Watson P A, et al., 2005. Cancer Res 65(24):11565-11571). Castration resistance in these cells is associated with the overexpression of full-length AR rather than an AR variant, such as AR-V7 in 22rv1 (Olson B M, et al., 2017. Cancer immunology research 5(12):1074-1085).

[6] = Solubility of 15u in aqueous solution and vehicles
MYC-CaP-CR tumors = MYC-CaP-CR tumors subcutaneous in intact FVB male mice; format: in vivo, mouse
Text: as §1

[7] = Mouse PK, intravenous 0.5 mg/kg; format: in vivo; details: i.v. 0.5 mg/kg, male FVB mice, mixture
MV4-11 cells = assay: cells; details: Homo sapiens, MV4-11, read-out: Inhibition Potency MV4-11-Luc Assay
[8] = Oral PK, male Cynomolgus monkeys 25 mg/kg; details: Liquid formulation 2, oral 25 mg/kg
MYC-CAP-CR cells [9] = assay: Short-term cell proliferation assay, MYC-CAP-CR; format: cell-based, murine; details: androgen-containing media
Text: as §1

[10] = Oral PK by formulation, male Sprague Dawley rats 30 mg/kg; format: in vivo, rat; details: oral 30 mg/kg
Procedure: We have also compared the PK of Suspension Vehicle 1 and Liquid formulation 2 in male Sprague Dawley rats, after oral administration at 30 mg/kg.

CSNK1D = CSNK1D (Homo sapiens, UniProt P48730); assay: Kd Elect binding assay (DiscoverX)
[11] = Oral PK of a mixture of 15w and 15u, 30 mg/kg, female CD1 mice; details: oral 30 mg/kg each
[12] = test system: alkaline phosphatase (ALPase); details: concentration that enhances ALPase activity to 200% of control, ST2 cells; cited from earlier work
MDA-MB-468 xenografts = assay: MDA-MB-468 TNBC xenografts in NSG female mice; details: 250 ppm medicated diet plus 5 then 8 mg/kg daily gavage, 66 days
[13] = Oral PK by formulation, male FVB mice 50 mg/kg; details: for Elimination rate k: male FVB

CSNK1D, sequence (P48730 whole entry): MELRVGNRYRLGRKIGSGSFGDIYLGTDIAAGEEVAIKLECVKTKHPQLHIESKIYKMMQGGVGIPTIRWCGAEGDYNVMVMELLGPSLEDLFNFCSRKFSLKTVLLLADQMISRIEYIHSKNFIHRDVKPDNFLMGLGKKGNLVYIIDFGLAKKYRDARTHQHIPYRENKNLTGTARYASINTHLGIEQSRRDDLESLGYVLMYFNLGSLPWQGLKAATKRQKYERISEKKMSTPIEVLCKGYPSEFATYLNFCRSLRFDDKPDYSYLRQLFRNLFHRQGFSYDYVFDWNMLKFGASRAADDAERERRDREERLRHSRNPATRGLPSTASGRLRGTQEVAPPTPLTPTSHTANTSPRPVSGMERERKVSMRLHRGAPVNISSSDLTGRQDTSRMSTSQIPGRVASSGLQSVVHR

Compound: CN(C)C(=O)c1ccc(N2CCCN(c3ccnc4sc(C(N)=O)c(N)c34)CC2)cc1 [Compound 15u, 3-amino-4-(4-(4-(dimethylcarbamoyl)phenyl)-1,4-diazepan-1-yl)thieno[2,3-b]pyridine-2-carboxamide]
- Elimination rate k ([1]; LF-V#2, oral 30 mg/kg): 0.22 h⁻¹
- Elimination rate k ([1]; Sus-V#1, oral 30 mg/kg): 0.37 h⁻¹
- Elimination rate k ([1]; Sus-V#2, oral 30 mg/kg): 0.38 h⁻¹
- increase of AUC, Liquid formulation 2 vs both suspension vehicles ([1]; oral 30 mg/kg, male CD-1 mice): 2-3 fold
- increase of t1/2, Liquid formulation 2 vs both suspension vehicles ([1]; oral 30 mg/kg, male CD-1 mice): ~1.7 fold
- weight loss [2]: 5-10%
- body weight loss ([3]; female CD-1 mice, 120 mg/kg b.i.d., after 7-10 days of treatment): about 10%
- detrimental effects ([3]; female CD-1 mice, doses up to 60 mg/kg b.i.d.): No detrimental effects were observed
- detrimental effects ([3]; male CD-1 mice, 60 and 120 mg/kg b.i.d.): No detrimental effects were observed
- inhibition of leukemia growth ([4]; 30 mg/kg twice daily by gavage): 94%
- inhibition of leukemia growth ([4]; medicated chow 1 g/kg): 99.7%
- survival post treatment ([4]; oral gavage): superior survival rates
- MYC-CaP-CR colony formation (MYC-CAP-CR cells [5]): decreased MYC-CaP-CR colony formation
- amount of the compound in the liquid phase ([6]; 5% DMSO, 20% HPBCD): 0.2 mg/mL
- solubility ([6]; Liquid formulation 1, pH 2.1, aqueous with cosolvent or surfactant or cyclodextrin): ~5000 µg/mL (≈ 11.4 mM)
- solubility ([6]; Liquid formulation 2, organic solvent or mixture): ≤ 20000 µg/mL
- solubility ([6]; aqueous solution, pH 7, water): < 10 µg/mL
- MYC-CaP-CR tumor volume and weight (MYC-CaP-CR tumors): modest effect
- Elimination rate [7]: 1.98 h⁻¹
- IC50 (MV4-11 cells): 30 nM
- adverse effects [8]: no adverse effects were observed
- MYC-CAP-CR cell growth (MYC-CAP-CR cells [9]): little effect
- increase of AUC, Liquid formulation 2 vs Suspension Vehicle 1 [10]: > 3 fold
- Kd (CSNK1D): 860 nM
- average serum concentration at the latest timepoint (8 hrs) as % of Cmax [11]: 64.4 % of Cmax
- ALP activity Assay EC200 [12]: 31.9 nM
- MDA-MB-468 tumor volume (MDA-MB-468 xenografts): significant reduction in tumor volume
- MDA-MB-468 tumor weights at the end of the study (MDA-MB-468 xenografts): significantly lower
- mouse body weights (MDA-MB-468 xenografts): no detrimental effects
- Elimination rate k ([13]; LF-V#1, oral 50 mg/kg): 0.13 h⁻¹
- Elimination rate k ([13]; Sus-V#1, oral 50 mg/kg): 0.25 h⁻¹
- increase of AUC, Liquid formulation 1 vs Suspension Vehicle 1 ([13]; oral 50 mg/kg, male FVB mice): 2.3 fold
- increase of t1/2, Liquid formulation 1 vs Suspension Vehicle 1 ([13]; oral 50 mg/kg, male FVB mice): ~2 fold
